Test system: 876862-298-R-J1-PDC complex spheroids, viability % test/control
Test: Anticancer human tumor 876862-298-R-J1-PDC patient-derived endometrial carcinoma cell line growth inhibition [CLK]
Conditions: for IC50: curve of first compound; for viability, T/C: stronger effect = lower value
Method in brief: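 Patient-derived tumor cells grown as complex spheroids with HUVEC endothelial cells and mesenchymal stem cells, treated with drug combinations. Concentrations descend in half-log steps from near clinical Cmax, or from 10 microM if Cmax unknown.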

[1] = second compound 0.0316 µM, first compound 0.0316 µM
[2] = second compound 0.0316 µM, first compound 0.1 µM
[3] = second compound 0.0316 µM, first compound 0.316 µM
[4] = second compound 0.0316 µM, first compound 1 µM
[5] = second compound 0.0316 µM, first compound 3.16 µM
[6] = second compound 0.0316 µM, first compound 10 µM
[7] = second compound 0.1 µM, first compound 0.0316 µM
[8] = second compound 0.1 µM, first compound 0.1 µM
[9] = second compound 0.1 µM, first compound 0.316 µM
[10] = second compound 0.1 µM, first compound 1 µM
[11] = second compound 0.1 µM, first compound 3.16 µM
[12] = second compound 0.1 µM, first compound 10 µM
[13] = second compound 0.316 µM, first compound 0.0316 µM
[14] = second compound 0.316 µM, first compound 0.1 µM
[15] = second compound 0.316 µM, first compound 0.316 µM
[16] = second compound 0.316 µM, first compound 1 µM
[17] = second compound 0.316 µM, first compound 3.16 µM
[18] = second compound 0.316 µM, first compound 10 µM
[19] = second compound 1 µM, first compound 0.0316 µM
[20] = second compound 1 µM, first compound 0.1 µM
[21] = second compound 1 µM, first compound 0.316 µM
[22] = second compound 1 µM, first compound 1 µM
[23] = second compound 1 µM, first compound 3.16 µM
[24] = second compound 1 µM, first compound 10 µM
[25] = second compound 3.16 µM, first compound 0.0316 µM
[26] = second compound 3.16 µM, first compound 0.1 µM
[27] = second compound 3.16 µM, first compound 0.316 µM
[28] = second compound 3.16 µM, first compound 1 µM
[29] = second compound 3.16 µM, first compound 3.16 µM
[30] = second compound 3.16 µM, first compound 10 µM
[31] = second compound 10 µM, first compound 0.0316 µM
[32] = second compound 10 µM, first compound 0.1 µM
[33] = second compound 10 µM, first compound 0.316 µM
[34] = second compound 10 µM, first compound 1 µM
[35] = second compound 10 µM, first compound 3.16 µM
[36] = second compound 10 µM, first compound 10 µM
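Also: spheroids exposed to drugs for 7 days before readout.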
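For viability, T/C in this document: 100% = DMSO vehicle control wells.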

`COC1C=CCC(C)C(C)S(=O)(=O)NC(=O)c2ccc3c(c2)N(CC2CCC21)CC1(CCCc2cc(Cl)ccc21)CO3` (stereo unspecified) + CN1CCN(c2cc(C(=O)Nc3cc4cc(-c5cnn(C)c5)ccc4cn3)ccn2)CC1 was tested, and the IC50 (second compound 0.0316 µM) was 7390 nM, the IC50 (second compound 0.1 µM) was 212 nM and the IC50 (second compound 0.316 µM) was < 31.6 nM. The IC50 (second compound 1 µM) was < 31.6 nM, the IC50 (second compound 3.16 µM) was < 31.6 nM and the IC50 (second compound 10 µM) was < 31.6 nM. It also gave a viability, T/C [1] of 93.9%, a viability, T/C [2] of 96.6% and a viability, T/C [3] of 97.6%. It also gave a viability, T/C [4] of 96.3%, a viability, T/C [5] of 96.7% and a viability, T/C [6] of 33.5%. It also gave a viability, T/C [7] of 56.9%, a viability, T/C [8] of 51.1% and a viability, T/C [9] of 47.6%. It also gave a viability, T/C [10] of 39%, a viability, T/C [11] of 38.6% and a viability, T/C [12] of 18.8%. It also gave a viability, T/C [13] of 4.28%, a viability, T/C [14] of 3.17% and a viability, T/C [15] of 2.26%. It also gave a viability, T/C [16] of 1.91%, a viability, T/C [17] of 1.34% and a viability, T/C [18] of 0.56%. It also gave a viability, T/C [19] of 0.93%, a viability, T/C [20] of 0.64% and a viability, T/C [21] of 25.5%. The viability, T/C [22] was 0.78%, the viability, T/C [23] was 25.2% and the viability, T/C [24] was 2.2%. It also gave a viability, T/C [25] of 1.34%, a viability, T/C [26] of 1.14% and a viability, T/C [27] of 1.59%. The viability, T/C [28] was 1.26%, the viability, T/C [29] was 1.14% and the viability, T/C [30] was 0.26%. It also gave a viability, T/C [31] of 1.69%, a viability, T/C [32] of 1.52% and a viability, T/C [33] of 2.33%. It also gave a viability, T/C [34] of 26.3%, a viability, T/C [35] of 1.84% and a viability, T/C [36] of 1.78%.
For `CCCS(=O)(=O)Nc1ccc(F)c(C(=O)c2c[nH]c3ncc(-c4ccc(Cl)cc4)cc23)c1F` + CN1CCN(c2cc(C(=O)Nc3cc4cc(-c5cnn(C)c5)ccc4cn3)ccn2)CC1, the IC50 (second compound 0.0316 µM) was 6760 nM, the IC50 (second compound 0.1 µM) was 974 nM and the IC50 (second compound 0.316 µM) was < 31.6 nM. For the same molecule, the IC50 (second compound 1 µM) was < 31.6 nM, the IC50 (second compound 3.16 µM) was < 31.6 nM and the IC50 (second compound 10 µM) was < 31.6 nM. The viability, T/C [1] was 103%, the viability, T/C [2] was 93.4% and the viability, T/C [3] was 89.2%. The viability, T/C [4] was 101%, the viability, T/C [5] was 77.1% and the viability, T/C [6] was 36.1%. The viability, T/C [7] was 63.4%, the viability, T/C [8] was 51.6% and the viability, T/C [9] was 53.1%. For the same molecule, the viability, T/C [10] was 50.7%, the viability, T/C [11] was 42.2% and the viability, T/C [12] was 22.5%. The viability, T/C [13] was 4.72%, the viability, T/C [14] was 3.82% and the viability, T/C [15] was 5.6%. The viability, T/C [16] was 5.09%, the viability, T/C [17] was 5.93% and the viability, T/C [18] was 3.83%. The viability, T/C [19] was 0.82%, the viability, T/C [20] was 1.88% and the viability, T/C [21] was 1.54%. The viability, T/C [22] was 2.17%, the viability, T/C [23] was 3.28% and the viability, T/C [24] was 1.25%. The viability, T/C [25] was 1.32%, the viability, T/C [26] was 2.22% and the viability, T/C [27] was 9.57%. It also gave a viability, T/C [28] of 1.58%, a viability, T/C [29] of 2.88% and a viability, T/C [30] of 2.88%. For the same molecule, the viability, T/C [31] was 1.06%, the viability, T/C [32] was 1.12% and the viability, T/C [33] was 1.23%. It also gave a viability, T/C [34] of 10.9%, a viability, T/C [35] of 7.9% and a viability, T/C [36] of 2.22%.
For `Nc1ccccc1NC(=O)c1ccc(CNC(=O)OCc2cccnc2)cc1` + CN1CCN(c2cc(C(=O)Nc3cc4cc(-c5cnn(C)c5)ccc4cn3)ccn2)CC1, the IC50 (second compound 0.0316 µM) was 4010 nM, the IC50 (second compound 0.1 µM) was < 31.6 nM and the IC50 (second compound 0.316 µM) was < 31.6 nM. The IC50 (second compound 1 µM) was < 31.6 nM, the IC50 (second compound 3.16 µM) was < 31.6 nM and the IC50 (second compound 10 µM) was < 31.6 nM. It also gave a viability, T/C [1] of 86.8%, a viability, T/C [2] of 95.2% and a viability, T/C [3] of 81.9%. For the same molecule, the viability, T/C [4] was 83.9%, the viability, T/C [5] was 54.9% and the viability, T/C [6] was 30.6%. It also gave a viability, T/C [7] of 48.5%, a viability, T/C [8] of 48.5% and a viability, T/C [9] of 40.9%. It also gave a viability, T/C [10] of 34.1%, a viability, T/C [11] of 15.7% and a viability, T/C [12] of 3.34%. It also gave a viability, T/C [13] of 2.84%, a viability, T/C [14] of 1.59% and a viability, T/C [15] of 1.03%. For the same molecule, the viability, T/C [16] was 0.37%, the viability, T/C [17] was 0.85% and the viability, T/C [18] was 0.12%. It also gave a viability, T/C [19] of 0.89%, a viability, T/C [20] of 1.78% and a viability, T/C [21] of 1.05%. The viability, T/C [22] was 0.95%, the viability, T/C [23] was 1.68% and the viability, T/C [24] was 1.65%. For the same molecule, the viability, T/C [25] was 1.22%, the viability, T/C [26] was 1.55% and the viability, T/C [27] was 1.06%. For the same molecule, the viability, T/C [28] was 1.89%, the viability, T/C [29] was 2.98% and the viability, T/C [30] was 3.09%. It also gave a viability, T/C [31] of 0.79%, a viability, T/C [32] of 1.03% and a viability, T/C [33] of 2.17%. The viability, T/C [34] was 1.89%, the viability, T/C [35] was 3.24% and the viability, T/C [36] was 1.78%.
